In doi:10.1101/2020.12.20.110478v1 (biorxiv, 2020):

Legend:
human GlyT1 (hGlyT1) [1] = target: T1, human GlyT1 (hGlyT1) (Homo sapiens, UniProt P48067); experiment: [3H]Org24598 membrane competition, filtration; assay type: binding
T1 sequence (P48067 1-706): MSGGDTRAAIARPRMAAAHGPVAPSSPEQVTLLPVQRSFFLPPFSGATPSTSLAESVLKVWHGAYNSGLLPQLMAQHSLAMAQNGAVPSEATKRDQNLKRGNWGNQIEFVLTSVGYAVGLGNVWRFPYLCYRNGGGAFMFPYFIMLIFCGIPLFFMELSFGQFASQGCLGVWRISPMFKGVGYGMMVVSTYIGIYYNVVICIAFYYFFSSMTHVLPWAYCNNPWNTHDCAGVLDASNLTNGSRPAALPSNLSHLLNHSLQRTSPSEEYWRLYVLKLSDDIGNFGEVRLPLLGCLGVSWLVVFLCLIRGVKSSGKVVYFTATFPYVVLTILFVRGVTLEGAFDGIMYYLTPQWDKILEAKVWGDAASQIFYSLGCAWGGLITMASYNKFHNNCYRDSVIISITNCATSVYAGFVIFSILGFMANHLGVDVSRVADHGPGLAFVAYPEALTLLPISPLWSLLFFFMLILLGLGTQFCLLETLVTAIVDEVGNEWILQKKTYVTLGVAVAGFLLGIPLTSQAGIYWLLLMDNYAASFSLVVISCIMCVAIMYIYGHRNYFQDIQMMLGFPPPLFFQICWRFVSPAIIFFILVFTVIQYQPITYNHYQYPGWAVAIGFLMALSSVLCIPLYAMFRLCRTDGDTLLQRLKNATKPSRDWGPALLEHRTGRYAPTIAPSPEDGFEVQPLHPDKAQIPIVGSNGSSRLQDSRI

human GlyT1 (hGlyT1) [2] = target: T1, human GlyT1 (hGlyT1); experiment: [3H]glycine uptake inhibition in Flp-in-CHO cells; assay type: cell-based
GlyT1^minimal = target: T2, GlyT1^minimal (Homo sapiens, UniProt P48067); experiment: CPM thermofluor; assay type: binding; settings: 10 uM Cmpd1; 0.73 uM protein; pH 7.5; LMNG
T2 sequence (P48067 91-684): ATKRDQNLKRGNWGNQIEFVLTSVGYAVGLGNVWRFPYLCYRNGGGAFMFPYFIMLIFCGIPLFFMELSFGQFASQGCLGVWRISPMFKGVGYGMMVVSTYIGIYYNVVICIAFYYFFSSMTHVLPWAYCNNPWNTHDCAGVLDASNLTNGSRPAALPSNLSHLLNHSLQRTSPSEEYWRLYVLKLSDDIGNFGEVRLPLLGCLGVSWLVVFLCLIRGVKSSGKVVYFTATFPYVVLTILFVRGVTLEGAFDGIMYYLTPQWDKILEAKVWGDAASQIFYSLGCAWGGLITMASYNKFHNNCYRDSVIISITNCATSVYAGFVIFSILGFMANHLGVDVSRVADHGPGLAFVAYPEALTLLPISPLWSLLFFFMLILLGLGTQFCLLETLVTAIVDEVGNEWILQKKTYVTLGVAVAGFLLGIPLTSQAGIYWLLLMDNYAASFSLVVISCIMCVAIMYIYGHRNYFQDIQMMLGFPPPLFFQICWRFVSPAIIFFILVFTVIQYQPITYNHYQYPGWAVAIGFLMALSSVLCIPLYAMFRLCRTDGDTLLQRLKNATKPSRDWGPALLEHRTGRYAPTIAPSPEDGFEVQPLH

IC50 (human GlyT1 (hGlyT1) [1]): 12.5 nM
IC50 (human GlyT1 (hGlyT1) [2]): 26.4 nM
increase in melting point (GlyT1^minimal): 30.5 °C
Compound: CS(=O)(=O)c1ccc(OCC(F)(F)C(F)(F)F)c(C(=O)N2Cc3ccc(OC4CCOCC4)cc3C2)c1 [Cmpd1]
